Measured values: the supplement of paper PMC10307832

Columns and labels:
Experiment in all cases: relative viability (nuclei count vs DMSO), 5 days (fraction); higher = more cells survive
Trametinib + Pictilisib = compound: CC(=O)Nc1cccc(-n2c(=O)n(C3CC3)c(=O)c3c(Nc4ccc(I)cc4F)n(C)c(=O)c(C)c32)c1 [Trametinib] + CS(=O)(=O)N1CCN(Cc2cc3nc(-c4cccc5[nH]ncc45)nc(N4CCOCC4)c3s2)CC1 [Pictilisib] (partner 1 µM)
In short: (§1)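 Cells from lung cancer lines were seeded into 1536-well plates and, one day later, dosed by pin tool. Treatments were either a single drug or a fixed dose of an anchor drug with five library-drug doses (not always all listed) in √10 steps. After 5 days, nuclei were stained in a one-step fixation (final 0.05% Triton X-100, 1% formaldehyde, 1 ug/ml Hoechst) and counted on 4× images, and relative viability is the treated-to-vehicle nuclei ratio, as the median of duplicate plates.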

Trametinib + Vorinostat = compound: CC(=O)Nc1cccc(-n2c(=O)n(C3CC3)c(=O)c3c(Nc4ccc(I)cc4F)n(C)c(=O)c(C)c32)c1 [Trametinib] + O=C(CCCCCCC(=O)Nc1ccccc1)NO [Vorinostat] (partner 1 µM)
In short: as §1

[1] = compound: CN1C=C(C2=CC=CC=C21)/C=C\3/C4=C(C=CC=N4)NC3=O + CC(=O)c1c(C)c2cnc(Nc3ccc(N4CCNCC4)cn3)nc2n(C2CCCC2)c1=O [Palbociclib] (partner 0.5 µM)
In short: as §1

[2] = compound: CN1C=C(C2=CC=CC=C21)/C=C\3/C4=C(C=CC=N4)NC3=O + C[C@]1(O)C[C@@H](c2nc(-c3ccc4ccc(-c5ccccc5)nc4c3)c3c(N)nccn32)C1 [Linsitinib] (partner 1 µM)
In short: as §1

Row | Cell Line | relative viability (Trametinib + Pictilisib; first compound 0.0025 µM) | relative viability (Trametinib + Pictilisib; first compound 0.007906 µM) | relative viability (Trametinib + Pictilisib; first compound 0.025 µM) | relative viability (Trametinib + Pictilisib; first compound 0.07906 µM) | relative viability (Trametinib + Pictilisib; first compound 0.25 µM) | relative viability (Trametinib + Vorinostat; first compound 0.0025 µM) | relative viability (Trametinib + Vorinostat; first compound 0.007906 µM) | relative viability (Trametinib + Vorinostat; first compound 0.025 µM) | relative viability (Trametinib + Vorinostat; first compound 0.07906 µM) | relative viability (Trametinib + Vorinostat; first compound 0.25 µM) | relative viability ([1]; first compound 0.02 µM) | relative viability ([1]; first compound 0.06325 µM) | relative viability ([1]; first compound 0.2 µM) | relative viability ([1]; first compound 0.6325 µM) | relative viability ([1]; first compound 2 µM) | relative viability ([2]; first compound 0.02 µM) | relative viability ([2]; first compound 0.06325 µM) | relative viability ([2]; first compound 0.2 µM) | relative viability ([2]; first compound 0.6325 µM) | relative viability ([2]; first compound 2 µM)
1 | HCC-78 | 0.205 | 0.154 | 0.185 | 0.152 | 0.212 | 0.447 | 0.377 | 0.382 | 0.433 | 0.414 | 0.356 | 0.426 | 0.364 | 0.48 | 0.437 | 0.444 | 0.51 | 0.233 | 0.423 | 0.487
2 | NCI-H23 | 0.348 | 0.357 | 0.217 | 0.27 | 0.189 | 0.501 | 0.537 | 0.277 | 0.323 | 0.126 | 0.506 | 0.408 | 0.417 | 0.499 | 0.486 | 0.614 | 0.648 |  | 0.655 | 0.631
3 | LOU-NH91 | 0.469 | 0.497 | 0.479 | 0.45 | 0.353 | 0.893 | 0.802 | 0.766 | 0.809 | 0.411 | 0.427 | 0.524 | 0.512 | 0.506 | 0.51 | 0.858 | 0.889 | 0.851 | 0.928 | 0.927
4 | LXF-289 | 0.674 | 0.618 | 0.424 | 0.388 | 0.264 | 0.711 | 0.587 | 0.538 | 0.529 | 0.55 | 0.589 | 0.593 | 0.626 | 0.656 | 0.775 | 0.901 | 0.935 | 1.04 | 1 | 0.999
5 | NCI-H460 | 0.302 | 0.23 | 0.156 | 0.125 | 0.0758 | 0.621 | 0.482 | 0.376 | 0.12 | 0.0929 | 0.209 | 0.153 | 0.0627 | 0.103 | 0.157 | 0.8 | 0.838 | 0.789 |  | 0.906
6 | EMC-BAC-2 | 0.517 | 0.429 | 0.379 | 0.423 | 0.331 | 0.742 | 0.602 | 0.448 |  | 0.326 | 0.471 | 0.513 | 0.504 | 0.521 | 0.535 | 0.787 | 0.826 | 0.806 | 0.852 | 0.867
7 | CAL-12T | 0.348 | 0.29 | 0.271 | 0.279 | 0.318 | 0.728 | 0.637 | 0.394 | 0.41 | 0.265 | 0.501 | 0.411 | 0.411 | 0.419 | 0.499 | 0.821 | 0.787 | 0.809 | 1.05 | 0.809
8 | COR-L 105 | 0.311 | 0.343 | 0.303 | 0.31 | 0.315 | 0.715 | 0.747 | 0.52 | 0.484 | 0.379 | 0.428 | 0.418 | 0.419 | 0.373 | 0.497 | 0.969 | 0.948 | 0.9 | 0.809 | 0.916
